Measured values: patent US8865909B2, “Anti-biofilm agents” (Yissum Research Development Company of the Hebrew …, priority 2008, dated 2014)

Experiments:
Vero cells [1] = assay: Vero cell viability assay (XTT); format: cell-based; settings: 160 minutes
Procedure: The effect of TZD10 on the viability of Vero cells was detected by incubating the cells for 40 minutes with TZD10, and further incubation for 120 minutes with the XTT reagents in the same medium without washings, so that the total incubation time with TZD10 was 160 minutes. The cells were treated with TZD10 for 40 minutes without the XTT reagents that were then added for further 120 minutes incubation.

V. harveyi biofilm = assay: Quorum sensing (luminescence) in mature biofilm; format: cell-based; parameters: reduction of QS: dose or concentration left out as unconfirmed; settings: for reduction of QSI: maximal tested concentration
Procedure: The working protocol for the biofilm disruption assays were conducted as follows. The tested V. harveyi strains (BB120, BB721, BB170, BB886) were grown to cell density of 1.5-2.5×10^9 CFU/ml (15-16 hrs) in AB medium at 30° C. with constant shaking and the suspension was diluted (1:5,000) in fresh AB medium. Aliquot of the suspension (200 μl) was added to each well in a white 96-well plate (NUNC) and incubated for 18 hours at 30° C. without shaking. The formed biofilm was carefully washed twice with saline. Fresh AB medium containing the exemplary ABF agent at the various tested concentrations, and either 10% (v/v) spent medium of V. harveyi MM30 (containing AI-1) or 10% (v/v) spent medium of V. harveyi BB152 (containing AI-2) were added, for further 18 hours of incubation as described above. Each sample was also tested without the spent medium as control to examine self induction. Positive and negative controls were included as described above. Each sample was tested in three separate biological experiments in triplicate samples. Luminescence was calculated as the AUC using the trapezoid rule.

Vero cells [2] = assay: Vero cells detachment from T-flasks; format: cell-based; settings: 100 μg/ml TZD10 + 1.34 mM EDTA in PBS, 40 minutes
Procedure: Vero cells were grown on for 6 days in T-flask with DMEM+10% FCS+Hepes+Glutamine+Pen-strep (Beit HaEmek). The cells were then washed with PBS and incubated for 40 minutes with 100 μg/ml TZD10+1.34 mM (about 0.5 mg/ml) EDTA in PBS without calcium and magnesium (Beit HaEmek).

MDCK cells [3] = assay: MDCK cells detachment assay; format: cell-based, canine
Procedure: (§1) Madine-Derby canine kidney cells (MDCK) are a non-cancerous, polarized epithelial cell line, used in the research of cell polarity mechanisms, and in the research of pathogen interactions with epithelial tissues. These cells produce monolayers in which cells are polarized and tightly connected to each other. The cells were treated with TZD10 for 40 minutes without the XTT reagents that were then added for further 120 minutes incubation. The influence of TZD10 on the attachment of MDCK cells was investigated using an identical method used for the Vero cells (the 96 well polystyrene plate method) as presented hereinabove.

MDCK cells [4] = assay: MDCK cells viability assay (XTT); format: cell-based, canine; settings: 40 minutes + 120 minutes with XTT
Procedure: as §1

In the case of `CCCCCCCCC/C=C1\SC(=O)NC1=O` [TZD10, (Z)-5-decylidenethiazolidine-2,4-dione], the “toxicity to Vero cells” value (Vero cells [1]; 125 μg/ml and above) is reported as “partially cytotoxic”, the “toxicity to Vero cells” value (Vero cells [1]; up to 100 μg/ml) is reported as “not toxic” and the “reduction of QSI activity” value (V. harveyi biofilm; AI-1 spent medium, 0.200 μM, BB886) is reported as 39%. The “reduction of QSI activity” value (V. harveyi biofilm; AI-1 spent medium, 0.200 μM, wild-type) was 62%, the “reduction of QS activity” value (V. harveyi biofilm; AI-1 spent medium, 2 μM, BB886) was 10% and the “reduction of QS activity” value (V. harveyi biofilm; AI-1 spent medium, 2 μM, wild type BB120) was 18%. For the same compound, the “change in QSI” value (V. harveyi biofilm; AI-2 spent medium, 2 μM, BB170) was “minor increase”, the “reduction of QSI activity” value (V. harveyi biofilm; AI-2 spent medium, 2 μM, BB721 (LuxO null)) was 25% and the “change in QSI” value (V. harveyi biofilm; AI-2 spent medium, 2 μM, wild-type BB120) was “minor increase”. For the same compound, the “reduction of QSI” value (V. harveyi biofilm; AI-2 spent medium, BB170) was 44%, the “reduction of QSI” value (V. harveyi biofilm; AI-2 spent medium, BB721) was 72% and the “reduction of QSI” value (V. harveyi biofilm; AI-2 spent medium, wild-type) was 35%. For the same compound, the “QS inhibition versus concentration” value (V. harveyi biofilm; all tested strains, mature biofilm) was “positive dose response”, the “effect on QS” value (V. harveyi biofilm; no AI-1 nor AI-2, BB170, 2 μM) was “no effect” and the “reduction of QS” value (V. harveyi biofilm; no AI-1 nor AI-2, BB170, highest tested concentration) was 62%. For the same compound, the “reduction of QSI activity” value (V. harveyi biofilm; no AI-1 nor AI-2, BB721, 2 μM) was 38%, the “reduction of QSI activity” value (V. harveyi biofilm; no AI-1 nor AI-2, BB721, 20 μM) was 63% and the “reduction of QSI activity” value (V. harveyi biofilm; no AI-1 nor AI-2, BB721, 200 μM) was 79%. The “reduction of QSI activity” value (V. harveyi biofilm; no AI-1 nor AI-2, BB886, 2 μM) was 30%, the “reduction of QSI activity” value (V. harveyi biofilm; no AI-1 nor AI-2, BB886, 200 μM) was 40% and the “cell release from T-flask” value (Vero cells [2]) was “could be released from the flask by pipettetion”. For the same compound, the “cell detachment from the polystyrene dish” value (MDCK cells [3]) was “detached”, the “time of detachment compared with Vero cells” value (MDCK cells [3]) was “observed sooner than it has been observed with Vero cells” and the “toxicity compared with Vero cells” value (MDCK cells [4]) was “more toxic to MDCK cells than to Vero cells”.
